Measurements from patent US8044079B2, “Substituted oxindole derivatives, medicaments containing said derivatives and use thereof” (Abbott GmbH & Co. KG, priority 2005, dated 2011).

target: T1, human vasopressin V1b receptor (Homo sapiens, UniProt P47901); assay: Vasopressin V1b receptor binding test; details: membranes of CHO-K1 cells with human V1b receptor, displacement of 1.5 nM 3H-AVP; for compounds with more than one stereogenic center the diastereomer with greater affinity
T1 construct: expressed in transfected cells; host or cells: CHO-K1 (cell line hV1b_3H2_CHO), membrane preparation
T1 sequence (P47901 1-424): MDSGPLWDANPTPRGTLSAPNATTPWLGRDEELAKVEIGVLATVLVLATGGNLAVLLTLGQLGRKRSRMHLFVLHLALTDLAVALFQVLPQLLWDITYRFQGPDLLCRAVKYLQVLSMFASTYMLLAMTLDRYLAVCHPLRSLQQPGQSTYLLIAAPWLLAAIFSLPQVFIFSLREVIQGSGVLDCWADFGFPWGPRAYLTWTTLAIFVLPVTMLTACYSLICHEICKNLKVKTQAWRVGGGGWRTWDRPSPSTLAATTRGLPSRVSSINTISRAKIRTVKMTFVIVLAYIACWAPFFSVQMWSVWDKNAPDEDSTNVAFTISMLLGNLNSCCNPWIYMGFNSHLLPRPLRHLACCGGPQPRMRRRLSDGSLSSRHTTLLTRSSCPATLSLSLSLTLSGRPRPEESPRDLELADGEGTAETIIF
Description: Vasopressin V1b Receptor Binding Test:
The test substances were dissolved at a concentration of 10^−2 M in DMSO, and were further diluted to 5×10^−4 M to 5×10^−9 M in DMSO. This DMSO predilution series was diluted 1:10 with test buffer. In the test assay the substance concentration was further diluted to 1:5 (2% DMSO in the assay).
The membrane pellet was homogenized again as described and centrifuged, and was then taken up in 50 mM tris-HCl at pH 7.4, homogenized, and frozen in aliquots at −190° C. and stored in liquid nitrogen.
The incubation buffer was 50 mM tris, 10 mM MgCl2, and 0.1% BSA at pH 7.4. […] The nonspecific binding was determined using 1 μM AVP (Bachem #H1780). All determinations were performed in triplicate. After incubation (60 minutes at room temperature), the free radioligand was filtered off by vacuum filtration (Skatron 7000 cell harvester) through Wathman GF/B fiberglass filter mats, and the filters were transferred to scintillation vessels. The liquid scintillation measurement was conducted in a Model 2000 or 2200CA TriCarb unit (Packard). The measured cpm was converted to dpm using a standard quench series.
The binding parameters were calculated by nonlinear regression in SAS.
The affinities of the compounds according to the invention for human vasopressin receptor V1b were measured according to the above test, and the affinity constants (Ki) were determined.

| Molecule | Ki [nM] |
| --- | --- |
| 5-Chloro-1-(4-cyanobenzenesulfonyl)-3-{4-[(2-hydroxyethylamino)methyl]-2-methoxyphenyl}-3-((2S,4R)-4-hydroxy-2-oxazol-2-yl-pyrrolidin-1-yl)-2,3-dihydroindol-2-one [Example 196] | 10 to 100 |
| COc1ccc(S(=O)(=O)N2C(=O)C(c3cc(CN4CCN(C)CC4)ccc3OC)(N3CCC[C@H]3c3ncco3)c3cc(Cl)ccc32)cc1 (single isomer, unassigned) [Example 1] | < 10 |
| COc1ccc(S(=O)(=O)N2C(=O)C(c3cc(CN4CCC4)ccc3OC)(N3CCC[C@H]3c3ncco3)c3cc(Cl)ccc32)cc1 (single isomer, unassigned) [Example 12] | < 10 |
| COc1ccc(S(=O)(=O)N2C(=O)C(c3cc(CN4CCN(C)CC4)ccc3OC)(N3C[C@H](O)C[C@H]3c3ncco3)c3cc(C#N)ccc32)cc1 (single isomer, unassigned) [Example 149] | < 10 |
| COc1ccc(S(=O)(=O)N2C(=O)C(c3cc(CO)ccc3OC)(N3CCC[C@H]3c3ncco3)c3cc(Cl)ccc32)cc1 (stereo partly drawn) [Example 2, 5-Chloro-3-(5-hydroxymethyl-2-methoxyphenyl)-1-(4-methoxybenzenesulfonyl)-3-((S)-2-oxazol-2-yl-pyrrolidin-1-yl)-1,3-dihydroindol-2-one] | 10 to 100 |
| CNCc1ccc(OC)c(C2(N3CCC[C@H]3c3ncco3)C(=O)N(S(=O)(=O)c3ccc(OC)cc3)c3ccc(Cl)cc32)c1 (stereo partly drawn) [Example 3, 5-Chloro-1-(4-methoxybenzenesulfonyl)-3-(2-methoxy-5-methylaminomethylphenyl)-3-((S)-2-oxazol-2-yl-pyrrolidin-1-yl)-1,3-dihydroindol-2-one] | < 10 |
| COc1ccc(S(=O)(=O)N2C(=O)C(c3cc(CN(C)C)ccc3OC)(N3CCC[C@H]3c3ncco3)c3cc(Cl)ccc32)cc1 (stereo partly drawn) [Example 4, 5-Chloro-3-(5-dimethylaminomethyl-2-methoxyphenyl)-1-(4-methoxybenzenesulfonyl)-3-((S)-2-oxazol-2-yl-pyrrolidin-1-yl)-1,3-dihydroindol-2-one] | < 10 |
| CCNCc1ccc(OC)c(C2(N3CCC[C@H]3c3ncco3)C(=O)N(S(=O)(=O)c3ccc(OC)cc3)c3ccc(Cl)cc32)c1 (stereo partly drawn) [Example 5, 5-Chloro-3-(5-ethylaminomethyl-2-methoxyphenyl)-1-(4-methoxybenzenesulfonyl)-3-((S)-2-oxazol-2-yl-pyrrolidin-1-yl)-1,3-dihydroindol-2-one] | < 10 |
| CCN(C)Cc1ccc(OC)c(C2(N3CCC[C@H]3c3ncco3)C(=O)N(S(=O)(=O)c3ccc(OC)cc3)c3ccc(Cl)cc32)c1 (stereo partly drawn) [Example 6, 5-Chloro-3-{5-[(ethylmethylamino)methyl]-2-methoxyphenyl}-1-(4-methoxybenzenesulfonyl)-3-((S)-2-oxazol-2-yl-pyrrolidin-1-yl)-1,3-dihydroindol-2-one] | < 10 |
| CCN(CC)Cc1ccc(OC)c(C2(N3CCC[C@H]3c3ncco3)C(=O)N(S(=O)(=O)c3ccc(OC)cc3)c3ccc(Cl)cc32)c1 (stereo partly drawn) [Example 7, 5-Chloro-3-(5-diethylaminomethyl-2-methoxyphenyl)-1-(4-methoxybenzenesulfonyl)-3-((S)-2-oxazol-2-yl-pyrrolidin-1-yl)-1,3-dihydroindol-2-one] | < 10 |
| COc1ccc(S(=O)(=O)N2C(=O)C(c3cc(CNC(C)C)ccc3OC)(N3CCC[C@H]3c3ncco3)c3cc(Cl)ccc32)cc1 (stereo partly drawn) [Example 8, 5-Chloro-3-[5-(isopropylaminomethyl)-2-methoxyphenyl]-1-(4-methoxybenzenesulfonyl)-3-((S)-2-oxazol-2-yl-pyrrolidin-1-yl)-1,3-dihydroindol-2-one] | < 10 |
| COc1ccc(S(=O)(=O)N2C(=O)C(c3cc(CN(C)C(C)C)ccc3OC)(N3CCC[C@H]3c3ncco3)c3cc(Cl)ccc32)cc1 (stereo partly drawn) [Example 9, 5-Chloro-3-{5-[(isopropylmethylamino)methyl]-2-methoxyphenyl}-1-(4-methoxybenzenesulfonyl)-3-((S)-2-oxazol-2-yl-pyrrolidin-1-yl)-1,3-dihydroindol-2-one] | < 10 |
| COc1ccc(S(=O)(=O)N2C(=O)C(c3cc(CNCCO)ccc3OC)(N3CCC[C@H]3c3ncco3)c3cc(Cl)ccc32)cc1 (stereo partly drawn) [Example 10, 5-Chloro-3-{5-[(2-hydroxyethylamino)methyl]-2-methoxyphenyl}-1-(4-methoxybenzenesulfonyl)-3-((S)-2-oxazol-2-yl-pyrrolidin-1-yl)-1,3-dihydroindol-2-one] | < 10 |
| COc1ccc(S(=O)(=O)N2C(=O)C(c3cc(CN4CCNCC4)ccc3OC)(N3CCC[C@H]3c3ncco3)c3cc(Cl)ccc32)cc1 (stereo partly drawn) [Example 11, 5-Chloro-1-(4-methoxybenzenesulfonyl)-3-(2-methoxy-5-piperazin-1-ylmethylphenyl)-3-((S)-2-oxazol-2-yl-pyrrolidin-1-yl)-1,3-dihydroindol-2-one] | < 10 |
| COc1ccc(S(=O)(=O)N2C(=O)C(c3cc(CN4CCCC4)ccc3OC)(N3CCC[C@H]3c3ncco3)c3cc(Cl)ccc32)cc1 (stereo partly drawn) [Example 13, 5-Chloro-1-(4-methoxybenzenesulfonyl)-3-(2-methoxy-5-pyrrolidin-1-ylmethylphenyl)-3-((S)-2-oxazol-2-yl-pyrrolidin-1-yl)-1,3-dihydroindol-2-one] | < 10 |
| COc1ccc(S(=O)(=O)N2C(=O)C(c3cc(CN4CCCCC4)ccc3OC)(N3CCC[C@H]3c3ncco3)c3cc(Cl)ccc32)cc1 (stereo partly drawn) [Example 14, 5-Chloro-1-(4-methoxybenzenesulfonyl)-3-(2-methoxy-5-piperidin-1-ylmethylphenyl)-3-((S)-2-oxazol-2-yl-pyrrolidin-1-yl)-1,3-dihydroindol-2-one] | < 10 |
| COc1ccc(S(=O)(=O)N2C(=O)C(c3ccc(CO)cc3OC)(N3CCC[C@H]3c3ncco3)c3cc(Cl)ccc32)cc1 (stereo partly drawn) [Example 15, 5-Chloro-3-(4-hydroxymethyl-2-methoxyphenyl)-1-(4-methoxybenzenesulfonyl)-3-((S)-2-oxazol-2-yl-pyrrolidin-1-yl)-1,3-dihydroindol-2-one] | 10 to 100 |
| CNCc1ccc(C2(N3CCC[C@H]3c3ncco3)C(=O)N(S(=O)(=O)c3ccc(OC)cc3)c3ccc(Cl)cc32)c(OC)c1 (stereo partly drawn) [Example 16, 5-Chloro-1-(4-methoxybenzenesulfonyl)-3-(2-methoxy-4-methylaminomethylphenyl)-3-((S)-2-oxazol-2-yl-pyrrolidin-1-yl)-1,3-dihydroindol-2-one] | < 10 |
| COc1ccc(S(=O)(=O)N2C(=O)C(c3ccc(CN(C)C)cc3OC)(N3CCC[C@H]3c3ncco3)c3cc(Cl)ccc32)cc1 (stereo partly drawn) [Example 17, 5-Chloro-3-(4-dimethylaminomethyl-2-methoxyphenyl)-1-(4-methoxybenzenesulfonyl)-3-((S)-2-oxazol-2-yl-pyrrolidin-1-yl)-1,3-dihydroindol-2-one] | < 10 |
| CCN(C)Cc1ccc(C2(N3CCC[C@H]3c3ncco3)C(=O)N(S(=O)(=O)c3ccc(OC)cc3)c3ccc(Cl)cc32)c(OC)c1 (stereo partly drawn) [Example 18, 5-Chloro-3-{4-[(ethylmethylamino)methyl]-2-methoxyphenyl}-1-(4-methoxybenzenesulfonyl)-3-((S)-2-oxazol-2-yl-pyrrolidin-1-yl)-1,3-dihydroindol-2-one] | < 10 |
| CCN(CC)Cc1ccc(C2(N3CCC[C@H]3c3ncco3)C(=O)N(S(=O)(=O)c3ccc(OC)cc3)c3ccc(Cl)cc32)c(OC)c1 (stereo partly drawn) [Example 19, 5-Chloro-3-(4-diethylaminomethyl-2-methoxyphenyl)-1-(4-methoxybenzenesulfonyl)-3-((S)-2-oxazol-2-yl-pyrrolidin-1-yl)-1,3-dihydroindol-2-one] | < 10 |
| CCCNCc1ccc(C2(N3CCC[C@H]3c3ncco3)C(=O)N(S(=O)(=O)c3ccc(OC)cc3)c3ccc(Cl)cc32)c(OC)c1 (stereo partly drawn) [Example 20, 5-Chloro-1-(4-methoxybenzenesulfonyl)-3-(2-methoxy-4-propylaminomethylphenyl)-3-((S)-2-oxazol-2-yl-pyrrolidin-1-yl)-1,3-dihydroindol-2-one] | < 10 |
| COc1ccc(S(=O)(=O)N2C(=O)C(c3ccc(CN(C)C(C)C)cc3OC)(N3CCC[C@H]3c3ncco3)c3cc(Cl)ccc32)cc1 (stereo partly drawn) [Example 21, 5-Chloro-3-{4-[(isopropylmethylamino)methyl]-2-methoxyphenyl}-1-(4-methoxybenzenesulfonyl)-3-((S)-2-oxazol-2-yl-pyrrolidin-1-yl)-1,3-dihydroindol-2-one] | < 10 |
